Test results taken from patent US6686349B2, “Substituted tetracyclic pyrroloquinolone derivatives useful as phosphodiesterase inhibitors” (Ortho-McNeil Pharmaceutical, Inc., priority 2001, dated 2004).

biological target: PDEV (UniProt O76074); assay: In vitro determination of Ki for phosphodiesterase inhibitors (PDEV); type: biochemical, rabbit and human tissues; details: 30 nM 3H-cGMP, 30° C. for 90 minutes; Ki is equivalent to the IC50 value
Experimental: Cyclic Nucleotide Phosphodiesterase (PDE) Assay
PDEV was isolated from rabbit and human tissues according to the protocol described by Boolell et al. (Boolell, M., Allen, M. J., Ballard, S. A., Ge[o-Attee, Muirhead, G. J., Naylor, A. M., Osterloh, I. H., and Gingell, C) in International Journal of Impotence Research 1996 8, 47-52 with minor modifications.
Briefly, rabbit or human tissues were homogenized in an ice-cold buffer solution containing 20 mM HEPES (pH 7.2), 0.25M sucrose, 1 mM EDTA, and 1 mM PMSF. The homogenates were centrifuged at 100,000 g for 60 minutes at 4° C. The supernatant was filtered through […] filter and loaded on a Pharmacia Mono Q anion exchange column (1 ml bed volume) that was equilibrated with 20 mM HEPES, 1 mM EDTA and 0.5 mM PMSF. After washing out unbound proteins, the enzymes were eluted with a linear gradient of 100-600 mM NaCl in the same buffer (35 to 50 ml total, depending on the tissue. Enzymes from the skeletal muscle, corpus cavernosum, retina, heart and platelet were eluted with 35, 40, 45, 50, and 50 ml respectively.) The column was run at a flow rate of 1 ml/min and 1 ml fractions were collected. The fractions comprising various PDE activities were pooled separately and used in later studies. […]
In Vitro Determination of Ki for Phosphodiesterase Inhibitors
The assays were adapted to a 96-well format. Phosphodiesterase was assayed in 5 mM MgCl2, 15 mM Tris HCl (pH 7.4), 0.5 mg/ml bovine serum albumin, 30 nM ^3H-cGMP and test compound at various concentrations. The amount of enzyme used for each reaction was such that less than 15% of the initial substrate was converted during the assay period. For all measurements, the test compound was dissolved and diluted in 100% DMSO (2%DMSO in assay). The total volume of the assay was 100 μl. The reaction mixture was incubated at 30° C. for 90 minutes. The reaction was stopped by boiling for 1 minute and then immediately cooled by transfer to an ice bath. To each well was then added 25 μl 1 mg/ml snake venom (Ophiophagus hannah) and the reaction mixture incubating at 30° C. for 10 minute. The reaction was stopped by the addition of 1 ml Bio-Rad AG1-X2 resin slurry (1:3). An aliquot of 200 μl was taken and counted by liquid scintillation.
The % inhibition of the maximum substrate conversion (by the enzyme in the absence of inhibitor) was calculated for each test compound concentration. Using GraphPad Prism's nonlinear regression analysis (sigmoidal dose response), the % inhibition vs log of the test compound concentration was plotted to determine the IC50. Under conditions where substrate concentration<<Km of the enzyme (Km=substrate concentration at which half of the maximal velocity of the enzyme is achieved), Ki is equivalent to the IC50 value.
Following the procedures as described in Examples 10 and 11 herein, representative compounds of the instant invention were tested for PDEV and PDEVI activity. PDEV inhibitory activities for these compounds are presented as Ki values (nM) in the Table 4.

Structure (SMILES) | Ki [nM]
CN1CC(=O)N2[C@H](c3ccc4c(c3)CCO4)c3[nH]c4ccccc4c(=O)c3[C@H]2C1=O [Compound 2, 11-(2,3-Dihydro-benzofuran-5-yl)-3-methyl-2,3,4a,11-tetrahydro-10H-3,10,11a-triaza-benzo[b]fluorene-1,4,5-trione] | 69
CN1CC(=O)N2[C@@H](c3ccc4c(c3)OCO4)c3[nH]c4ccccc4c(=O)c3[C@@H]2C1=O [Compound 4, 11-Benzo[1,3]dioxol-5-yl-3-methyl-2,3,4a,11-tetrahydro-10H-3,10,11a-triaza-benzo[b]fluorene-1,4,5-trione] | 80
O=C1[C@H]2c3c([nH]c4ccccc4c3=O)[C@@H](c3ccc4c(c3)OCO4)N2C(=O)CN1Cc1ccccc1 [Compound 5, 11-Benzo[1,3]dioxol-5-yl-3-benzyl-2,3,4a,11-tetrahydro-10H-3,10,11a-triaza-benzo[b]fluorene-1,4,5-trione] | 123
CN1CCC(=O)N2[C@H](c3ccc4c(c3)OCO4)c3[nH]c4ccccc4c(=O)c3[C@@H]2C1=O [Compound 7, 11-Benzo[1,3]dioxol-5-yl-7-methyl-5b,8,9,12-tetrahydro-7H,11H-7,10a,12-triaza-naphtho[2,3-a]azulene-5,6,10-trione] | 148
O=C1[C@H]2c3c([nH]c4ccccc4c3=O)[C@@H](c3ccc4c(c3)OCO4)N2C(=O)CN1Cc1ccccn1 [Compound 10, 11-Benzo{1,3]dioxol-5-yl-3-pyridin-2-ylmethyl-2,3,4a,11-tetrahydro-10H-3,10,11a-triaza-benzo[b]fluorene-1,4,5-trione] | 63

Other lines, results leading:

Ki [nM] | Structure (SMILES)
48 | CN1CC(=O)N2C(C1=O)c1c([nH]c3ccccc3c1=O)[C@H]2c1ccc2c(c1)OCO2 (stereo in doubt) [Compound 9, 11-Benzo[1,3]dioxol-5-yl-3-methyl-2,3,4a,11-tetrahydro-10H-3,10,11a-triaza-benzo[b]fluorene-1,4,5-trione]
17 | CN1CC(=O)N2[C@@H](c3ccc4c(c3)OCO4)c3[nH]c4ccccc4c(=O)c3[C@H]2C1=O [Compound 3, 11-Benzo[1,3]dioxol-5-yl-3-methyl-2,3,4a,11-tetrahydro-10H-3,10,11a-triaza-benzo[b]fluorene-1,4,5-trione]
14 | CN1CC(=O)N2[C@H](c3ccc4c(c3)OCO4)c3[nH]c4ccccc4c(=O)c3[C@@H]2C1=O [Compound 8, 11-Benzo[1,3]dioxol-5-yl-3-methyl-2,3,4a,11-tetrahydro-10H-3,10,11a-triaza-benzo[b]fluorene-1,4,5-trione]
7 | CN1CC(=O)N2[C@H](c3ccc4c(c3)CCO4)c3[nH]c4ccccc4c(=O)c3[C@@H]2C1=O [Compound 1, 11-(2,3-Dihydro-benzofuran-5-yl)-3-methyl-2,3,4a,11-tetrahydro-10H-3,10,11a-triaza-benzo[b]fluorene-1,4,5-trione]

system: not listed separately; assay: In vivo testing following the procedure of Carter et al.; details: J. Urology 1998, 160, 242-246
Experimental: Following the procedure disclosed by Carter et al., (Carter, A. J., Ballard, S. A., and Naylor, A. M.) in The Journal of Urology 1998, 160, 242-246, compound #8 was tested as active for in vivo activity.

Structure (SMILES) | in vivo activity
CN1CC(=O)N2[C@H](c3ccc4c(c3)OCO4)c3[nH]c4ccccc4c(=O)c3[C@@H]2C1=O [Compound 8, 11-Benzo[1,3]dioxol-5-yl-3-methyl-2,3,4a,11-tetrahydro-10H-3,10,11a-triaza-benzo[b]fluorene-1,4,5-trione] | active

system: not given; assay: not given; details: use of sildenafil; non-selective effects on a variety of tissues; cited from earlier work

Structure (SMILES) | undesirable side effects
CCCc1nn(C)c2c(=O)[nH]c(-c3cc(S(=O)(=O)N4CCN(C)CC4)ccc3OCC)nc12 [sildenafil, 5-[2-ethoxy-5-(4-methylpiperazin-1-ylsulphonyl)phenyl]-1-methyl-3-n-propyl-6,7-dihydro-1H-pyrazolo[4,3-d]pyrimidin-7-one] | headache, flushing and disrupted color vision
